# Measured values: patent US20210284691A1, “CBX8 CHROMDOMAIN INHIBITORS AND THE USES THEREOF” (Purdue Research Foundation, priority 2019, published 2021)
# Square brackets hold non-standard residues; d marks the D form. Peptide text beside a SMILES is read from it. * marks the point of attachment. Tyr(3-Cl) = N[C@@H](Cc1ccc(O)c(Cl)c1)C(=O)O; Benzoyl(3,5-Cl2) = O=C(c1cc(Cl)cc(Cl)c1)*; Lys(Et2) = CCN(CC)CCCC[C@H](N)C(=O)O; Gly(cPent) = N[C@H](C(=O)O)C1CCCC1; NH(propargyl) = C#CCN*
# Experiments:
# Format in all cases: cell-based
# [1] = target: T1, CBX8 bulk chromatin binding (Homo sapiens, UniProt Q9HC52); assay: Sequential salt extraction (SSE) in HEK293T cells; conditions: 10 μM
# T1 construct: endogenous in cells; host or cells: HEK293T (A19)
# T1 sequence (Q9HC52 whole entry): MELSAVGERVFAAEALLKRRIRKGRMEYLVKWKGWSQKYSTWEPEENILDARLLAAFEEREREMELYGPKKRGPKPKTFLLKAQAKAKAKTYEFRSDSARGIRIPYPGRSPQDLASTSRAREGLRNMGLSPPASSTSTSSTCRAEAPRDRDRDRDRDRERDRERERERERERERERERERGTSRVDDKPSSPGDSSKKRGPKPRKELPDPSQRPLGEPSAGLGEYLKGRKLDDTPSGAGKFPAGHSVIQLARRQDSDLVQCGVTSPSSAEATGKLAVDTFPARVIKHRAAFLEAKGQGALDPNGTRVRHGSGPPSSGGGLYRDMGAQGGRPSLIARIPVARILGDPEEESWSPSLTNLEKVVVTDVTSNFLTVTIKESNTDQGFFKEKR
# Source text: Sequential Salt Extraction. […] In this assay, bulk chromatin is sequentially resuspended in increasing concentrations of sodium chloride, and the proteins eluted with each wash are quantified using immunoblotting.
# Next day, media was removed and cells were washed with PBS. […] After the 4-hour pretreatment, media was removed and cells were washed again with PBS. Cells were harvested and washed with PBS. (Note: it is critical to balance the cell numbers the same in the peptide treated group and the DMSO treated control group.) Cells were resuspended in 1 mL Buffer A (25 mM HEPES, 25 mM KCl, 5 mM MgCla, 0.1% NP-40, 10% Glycerol, 0.05 M EDTA, pH 7.8, plus protease inhibitor) was added to the cell pellet from centrifuge and rotated at 4° C. for 10 minutes (Porter et al.). Cells were spun down at 6500×g for 5 min at 4° C. […] (Note: it is critical to maintain the consistence for all washing steps with the subsequent NaCl containing mRIPA buffers) Then the sample was centrifuged for 3 min at 6500×g. The supernatant was saved in a separate tube, labeled as “0 mM fraction”—0 mM sequential salt extraction washing supernatant. […] The procedures for OmM was repeated for each salt concentrations in the subsequent washes. All washing supernatants were saved and labeled. […] ImageJ was employed to quantitate the protein bands.
# [2] = target: T2, CBX7 bulk chromatin binding (Homo sapiens, UniProt O95931); assay: Sequential salt extraction (SSE) in HEK293T cells; conditions: 10 μM
# T2 construct: endogenous in cells; host or cells: Hs68 fibroblasts (A17); HEK293T (A20)
# T2 sequence (O95931 whole entry): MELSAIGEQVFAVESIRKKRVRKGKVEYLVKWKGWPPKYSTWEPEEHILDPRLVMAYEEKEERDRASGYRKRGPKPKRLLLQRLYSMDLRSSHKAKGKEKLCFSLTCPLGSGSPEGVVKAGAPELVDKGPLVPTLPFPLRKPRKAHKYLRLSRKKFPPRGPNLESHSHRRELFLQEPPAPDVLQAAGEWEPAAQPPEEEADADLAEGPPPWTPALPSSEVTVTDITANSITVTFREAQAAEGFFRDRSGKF
# LNCaP_NED cells = assay: LNCaP_NED cell proliferation, viability and morphology
# Source text: (§1) FIG. 12A). Neuroendocrine differentiation (NED) of prostate cancer induced by androgen deprivation. Representative pictures of LNCaP cells treated with normal media or charcoal-stripped serum (CSS) media for 6 days to induce neuroendocrine differentiation (LNCaP_NED). FIG. 12B). Transcriptional fold changes of KLK3/TMPRSS2/ENO2/CHGA were quantified normalized to control gene YWHAZ upon CSS media treatment for 6 or 9 days. FIG. 12C). Western blotting of CBX paralogs in LNCaP and LNCaP_NED cells generated from 14-day CSS treatment. FIG. 12D). Cell proliferation of LNCaP_NED following 5 days incubation with 2 or 10 μM SW2_152F. DMSO was used as negative control. FIG. 12E). LNCaP_NED cells were treated with 10 μM SW2_152F for 24 h-96 h. Cell morphology pictures were captured starting from 24 h. Average cell size were plotted at 24 h or 48 h for both DMSO group and compound treated group. FIG. 12F). LNCaP_NED cells were treated with 10 μM or 50 μM SW2_152F for 48 hours. Transcriptional fold change of genes (KLK3/TMPRSS2/AR/CBX2) were normalized to YWHAZ in LNCaP_NED cells with SW2_152F treatment or DMSO. FIG. 12G). LNCaP cells were treated with DMSO. LNCaP_NED cells were treated with DMSO, 10 μM GSK343 or 10 μM SW2_152F for 48 hours. Whole cell lysates were extracted for western blotting. FIG. 12H). LNCaP_NED cells were treated with DMSO or 10 μM SW2_152F for 4 hours before harvest. Binding of H3K27me3 and CBX2 at specific genomic sites (KLK3/TMPRSS2, e: enhancer, p: promoter) were evaluated using chromatin immunoprecipitation-qPCR. For all experiments in the figure, error bars represent SEM n=3 biological replicates, p-values were calculated using two-tailed Student's t-test, *=p<0.05, **=p<0.01, ***=p<0.001, ****=p<0.0001.
# Cellular Activity of CBX2 Inhibitor in Neuroendocrine Differentiation of Prostate Cancer—Generation of a Prostate Cancer Neuroendocrine Differentiation (NED) System. To generate an in vitro model for NED, we cultured the androgen-sensitive prostate cancer cell line LNCaP in charcoal-stripped serum (CSS), which lacks androgens as well as other steroids. Upon treatment with CSS media, LNCaP cells adopted morphological characteristics of neuroendocrine-like cells (LNCaP_NED), which include dominant nucleus, limited cytoplasm, dendrites (FIG. 12A) and a decreased proliferation rate. To monitor transcriptional changes during androgen deprivation, we quantified the changes in expression of two NED markers (ENO2 and CHGA) and two AR target genes (KLK3 and TMPRSS2) by RT-qPCR during 15 days of androgen deprivation. […] To verify that LNCaP_NED cells become resistant to AR antagonists, we tested the effects of the AR antagonist enzalutamide (ENZA) on cell proliferation.
# [3] = target: T3, CBX2 and H3K27me3 at KLK3/TMPRSS2 enhancers and promoters (Homo sapiens, UniProt Q14781); assay: ChIP-qPCR in LNCaP_NED cells; conditions: 10 μM, 4 hours
# T3 construct: endogenous in cells
# T3 sequence (Q14781 whole entry): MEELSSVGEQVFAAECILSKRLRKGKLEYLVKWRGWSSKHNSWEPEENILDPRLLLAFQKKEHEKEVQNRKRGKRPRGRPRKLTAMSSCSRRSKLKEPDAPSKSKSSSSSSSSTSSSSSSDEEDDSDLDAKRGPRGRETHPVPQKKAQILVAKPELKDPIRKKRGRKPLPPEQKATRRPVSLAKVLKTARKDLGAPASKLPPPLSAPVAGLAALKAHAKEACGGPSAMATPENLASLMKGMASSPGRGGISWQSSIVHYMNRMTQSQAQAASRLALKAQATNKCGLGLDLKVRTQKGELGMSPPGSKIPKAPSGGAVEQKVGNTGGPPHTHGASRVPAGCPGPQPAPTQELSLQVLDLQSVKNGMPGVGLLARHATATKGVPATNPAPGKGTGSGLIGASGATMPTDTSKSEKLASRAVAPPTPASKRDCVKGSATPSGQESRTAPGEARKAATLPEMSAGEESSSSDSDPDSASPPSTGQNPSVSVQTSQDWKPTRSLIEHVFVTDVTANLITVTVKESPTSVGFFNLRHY
# Source text: as §1, with “Transcriptional fold change of genes (KLK3/TMPRSS2/AR/CBX2) were normalized to YWHAZ in LNCaP_NED cells with SW2_152F treatment or DMSO. FIG. 12G). LNCaP cells were treated with DMSO. LNCaP_NED cells were treated with DMSO, 10 μM GSK343 or 10 μM SW2_152F for 48 hours. Whole cell lysates were extracted for western blotting. FIG. 12H). LNCaP_NED cells were treated with DMSO or 10 μM SW2_152F for 4 hours before harvest.” left out, “****=p<0.0001. […]” for “****=p<0.0001.”
smiles,measurement,setting,value
"C#CCNC(=O)[C@H](CO)NC(=O)[C@H](CCCCN(CC)CC)NC(=O)[C@@H](NC(=O)[C@@H](NC(=O)[C@H](Cc1ccc(O)c(Cl)c1)NC(=O)c1cc(Cl)cc(Cl)c1)C1CCCC1)[C@@H](C)CC [SW2_152F] ({Benzoyl(3,5-Cl2)}-[Tyr(3-Cl)][Gly(cPent)]I[Lys(Et2)]S-{NH(propargyl)})","CBX8 binding to chromatin, SSE",[1],only a modest change
same,"CBX7 binding to chromatin, SSE",[2],No effect
same,cell size and dendrites of LNCaP_NED cells,"LNCaP_NED cells; 10 μM, 24 h or 48 h",significantly decreased average cell size and reduced dendrites
same,LNCaP_NED cell proliferation,"LNCaP_NED cells; 2 or 10 μM, 5 days",significantly inhibited LNCaP_NED cell proliferation
same,"LNCaP_NED cell viability, combination with ENZA","LNCaP_NED cells; both compounds, 4 days, compared to either alone",significantly decreased
same,"CBX2 binding at AR target genes, ChIP-qPCR",[3],abrogates CBX2 binding at the KLK3 (PSA)/TMPRSS2 enhancers and promoters
same,"H3K27me3 enrichment at AR target genes, ChIP-qPCR",[3],reduces H3K27me3 enrichment specifically at these sites
